Source: patent publication US5190924A, “Peptide amides and amide dimers useful as muscle relaxants” (BOC Health Care, Inc., priority 1991, dated 1993)
Where two headings read alike, the source gives them in different places.

Columns and labels:
neuromuscular junction [1] = test: Mouse inclined screen grip strength test; format: in vivo; settings: mice on 45° inclined screen; dose required to inhibit grip strength
Protocol: The first step, in mice, establishes a preliminary estimate of the potency and efficacy of the compounds. The animals were placed on a screen, inclined 45° to the horizontal. Effective doses caused the mice to lose their grip and slide down the inclined screen. […]

neuromuscular junction [2] = format: in vivo; settings: for Neuromuscular Junction Blocking Activity (ED90), Rabbit: Table I, rabbit paw twitch; for ED90 (potency: dose required to depress twitch tension to 10% of control): Table II, anesthetized rabbits, marginal ear vein; for Duration (time from injection until train-of-four recovered to 75%) / HR (% change from pre-drug heart rate) / onset T85% (time from injection until 85% of maximal drug effect) / BP (% change of pre-drug blood pressure): rabbit
Source text: In a large series of similar telaxants, the rabbit dose is typically 125% of that in mice. The mechanism of action was also confirmed in this test by observing train-of-four and tetanus fade, post-tetanic potentiation of single twitches and administration of the anticholinesterase drug neostig- mine which reverses the relaxation. Reversibility, rapid onset and short duration are important factors to the anesthesiologist.
The following is a brief description of the methodologies used in rabbits to describe neuromuscular blocking activity of the subject compounds. A more detailed description of these methods is presented in "Microcomputer Use in Measuring Onset, Duration, and Recovery from Non-Depolarizing Skeletal Muscle Relaxants in Rabbits", P. D. Thut et al, Drug development Research 5:182, 1985.
Male New Zealand white rabbits weighing between 2.5 and 3.4 kg were anesthetized with pentobarbital (30 mg/kg) and placed on their backs upon a 40° C. water filled temperature regulation pad. Following tracheostomy, the lungs were mechanically ventilated at 28 breaths per minute with room air, using an open system delivering 200 mi/stroke. This ventilation maintained pCO2 at 38 mmHG and pO2 at 85 mmHg. Direct arterial blood pressure was measured from the right common carotid artery. The test compounds were administered through a canula placed in the marginal ear vein. Each foreleg was taped to a cushioned plate held in a femur clamp attached to the spinal board rack. The left centeral digit of each paw was connected to a force displacement transducer for measurement of muscle tension. Nerve stimulation was provided by pairs of pin electrodes placed on both sides of the ulnar nerve at the elbow of both forearms. The right ulnar nerve was stimulated at […] for 0.5 msec duration. The left ulnar nerve was similarly stimulated, every 15 seconds, with addition of interspersed trains-of-four and tetanizing stimuli. The parameters reported in Table II are: potency (ED90), which is the dose required to depress twitch tension to 10% of its control value; onset (T85%), which is the time from injection unit 85% of the maximal drug effect is achieved, duration, which is the time from injection until the train-of-four has recovered to 75%, blood pressure (BP), which is the percentage change of pre-drug blood pressure; and heart rate (HR), which is the percentage change from pre-drug heart rate.

[3] = equi-efficacious dose, arterial blood pressure

| Structure (SMILES) | Neuromuscular Junction Blocking Activity (ED90), Mouse (neuromuscular junction [1]) [mg/kg] | Neuromuscular Junction Blocking Activity (ED90), Rabbit (neuromuscular junction [2]) [mg/kg] | ED90 (potency: dose required to depress twitch tension to 10% of control) (neuromuscular junction [2]) [mg/kg] | Duration (time from injection until train-of-four recovered to 75%) (neuromuscular junction [2]; equi-efficacious dose) [min] | HR (% change from pre-drug heart rate) (neuromuscular junction [2]; equi-efficacious dose) [% change] | onset T85% (time from injection until 85% of maximal drug effect) (neuromuscular junction [2]; equi-efficacious dose) [s] | BP (% change of pre-drug blood pressure) (neuromuscular junction [2]; [3]) [% change] | BP (% change of pre-drug blood pressure) (neuromuscular junction [2]; in vivo) [% change] | HR (% change from pre-drug heart rate) (neuromuscular junction [2]; in vivo) [% change] |
| --- | --- | --- | --- | --- | --- | --- | --- | --- | --- |
| C[N+](C)(C)[C@@H](Cc1ccccc1)C(=O)NCCCCCCCCCCNC(=O)[C@H](Cc1ccccc1)[N+](C)(C)C [Compound C, bis-(N,N,N-trimethyl-L-phenylalanyl) -decane-1,10-diamide] | 1.259 | 4.408 | 4.41 | 17.4 | -0.80 | 37.60 | -40.30 |  |  |
| CC(=O)O[C@H]1C[C@@H]2CC[C@@H]3[C@H](CC[C@@]4(C)[C@H]3C[C@H]([N+]3(C)CCCCC3)[C@@H]4OC(C)=O)[C@@]2(C)C[C@@H]1N1CCCCC1 [vecuronium] | 0.025 | 0.020 | 0.02 | 16.80 | -1.90 | 97.30 | 1.10 |  |  |
| C[N+](C)(C)C(Cc1ccccc1)C(=O)NCCCCCCNC(=O)C(Cc1ccccc1)[N+](C)(C)C.[I-].[I-] (stereo not drawn) [Compound A, Me3 N^+ -Phe-NH-(CH2)6 -NH-Phe-N^+ Me3 2I^-] | 7.940 |  |  |  |  |  |  |  |  |
| CC(C)CC(NC(=O)C(Cc1ccccc1)[N+](C)(C)C)C(=O)NCC[N+](C)(C)C.O=C([O-])C(F)(F)F.O=C([O-])C(F)(F)F (stereo not drawn) [Compound D, Me3 N^+ -Phe-Leu-NH-(CH2)2 -N^+ Me3 2(CF3 CO2)^=] | 16.000 | 31.13 | 31.13 | 15.00 | 4.60 | 36.3 | -28.30 |  |  |
| CC(C)CC(NC(=O)C(Cc1ccccc1)NC(=O)C(CC(C)C)[N+](C)(C)C)C(=O)NCCCCCCC[N+](C)(C)C [Compound E, N,N,N-trimethyl-L-leucyl-L-phenylalanyl-L-Leucine-(7-trimethylammonium) heptylamide] | 1.995 |  |  |  |  |  |  |  |  |
| CC(=O)O[C@H]1C[C@@H]2CC[C@@H]3[C@H](CC[C@@]4(C)[C@H]3C[C@H]([N+]3(C)CCCCC3)[C@@H]4OC(C)=O)[C@@]2(C)C[C@@H]1[N+]1(C)CCCCC1 [pancuronium] |  |  | 0.02 | 32.50 | 0.00 | 147.50 | 2.70 |  |  |
| CC(C)CC(NC(=O)C(Cc1ccccc1)NC(=O)C(CC(C)C)[N+](C)(C)C)C(=O)NCCCCC[N+](C)(C)C.O=C([O-])C(F)(F)F.O=C([O-])C(F)(F)F (stereo not drawn) [Compound B, Me3 N^+ -Leu-Phe-Leu-NH-(CH2)5 -N^+ Me3 2(CF3 CO2)^=] | 3.981 |  |  |  |  |  |  |  |  |
| COc1ccc(CC2c3cc(OC)c(OC)cc3CC[N+]2(C)CCC(=O)OCCCCCOC(=O)CC[N+]2(C)CCc3cc(OC)c(OC)cc3C2Cc2ccc(OC)c(OC)c2)cc1OC (stereo not drawn) [atracurium] | 0.631 | 0.050 | 0.05 | 14.30 |  | 126.90 |  | -3.40 | -1.00 |
